Experimental data published in patent US10883993B2, “P53 biomarkers” (MULTIVIR INC., priority 2008, dated 2021).

What was measured:
[1] = test system: SCCHN; conditions: monotherapy studies in SCCHN, ITT population, standard of care drugs; cited from earlier work
[2] = test system: recurrent SCCHN; experiment: Phase 3 pivotal trial T301 (ADVEXIN or methotrexate), tumor response and survival; assay type: in vivo, human
Description: Favorable response to the therapy may comprise reduction in tumor size or burden, blocking of tumor growth, reduction in tumor-associated pain, reduction in tumor-associated pathology, reduction in tumor-associated symptoms, tumor non-progression, increased disease free interval, increased time to progression, induction of remission, reduction of metastasis, or increased patient survival. Particularly, “tumor response” may refer to tumor growth control (tumor growth control (TGC) defined by complete (CR) and partial (PR) reductions in size of >50% or Stable Disease (SD); TGC=CR+PR+SD) or reductions in tumor size of >10%.
Table 2 summarizes the results of these analyses and provides the corresponding data for patients treated with methotrexate in the pivotal Phase 3 T301 study.

[3] = test system: SCCHN patients; experiment: Safety data, Phase III SCCHN study (ADVEXIN vs methotrexate)
[4] = test system: αv/β3 vascular integrin; conditions: mice, without harming them; cited from earlier work
[5] = target: T1, αv/β3 vascular integrin (Homo sapiens, UniProt P05106+P06756); conditions: Phase II clinical trials in humans, without harmful side effects; cited from earlier work
T1 construct: the new blood vessels in tumors express a vascular integrin, designated αv/β3; host or cells: tumour blood vessels of human patients

[6] = T301, p53 gene status wild type
[7] = T301 methotrexate ITT population

T1 sequence (P06756 31-889 limits assumed): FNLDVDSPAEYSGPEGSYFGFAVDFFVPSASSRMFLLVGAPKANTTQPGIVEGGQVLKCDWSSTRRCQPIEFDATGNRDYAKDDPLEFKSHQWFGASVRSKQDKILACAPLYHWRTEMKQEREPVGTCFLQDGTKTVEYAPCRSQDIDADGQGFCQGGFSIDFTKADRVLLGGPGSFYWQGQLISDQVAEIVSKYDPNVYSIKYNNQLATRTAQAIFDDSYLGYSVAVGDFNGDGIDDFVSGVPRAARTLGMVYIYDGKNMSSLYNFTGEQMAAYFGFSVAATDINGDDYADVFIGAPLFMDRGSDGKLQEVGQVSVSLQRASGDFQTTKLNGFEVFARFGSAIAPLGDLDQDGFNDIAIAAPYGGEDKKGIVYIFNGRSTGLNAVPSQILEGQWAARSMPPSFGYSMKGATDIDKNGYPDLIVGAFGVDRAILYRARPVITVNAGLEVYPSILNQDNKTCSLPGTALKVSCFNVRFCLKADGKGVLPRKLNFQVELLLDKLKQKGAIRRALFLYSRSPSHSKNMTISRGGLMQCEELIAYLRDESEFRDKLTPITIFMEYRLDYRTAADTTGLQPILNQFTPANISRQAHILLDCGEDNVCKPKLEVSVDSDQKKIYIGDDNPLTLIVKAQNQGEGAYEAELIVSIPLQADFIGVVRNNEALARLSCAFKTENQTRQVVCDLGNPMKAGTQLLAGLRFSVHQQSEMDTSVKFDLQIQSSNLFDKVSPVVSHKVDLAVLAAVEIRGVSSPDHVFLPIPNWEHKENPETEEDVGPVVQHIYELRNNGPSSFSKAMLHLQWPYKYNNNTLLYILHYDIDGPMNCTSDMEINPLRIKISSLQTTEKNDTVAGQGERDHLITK
T1 sequence (P06756 891-1048 limits assumed): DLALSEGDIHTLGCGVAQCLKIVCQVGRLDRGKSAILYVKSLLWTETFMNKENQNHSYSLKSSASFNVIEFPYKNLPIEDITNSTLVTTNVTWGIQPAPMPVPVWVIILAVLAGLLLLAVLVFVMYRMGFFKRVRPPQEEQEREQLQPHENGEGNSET
T1 sequence (P05106 27-788): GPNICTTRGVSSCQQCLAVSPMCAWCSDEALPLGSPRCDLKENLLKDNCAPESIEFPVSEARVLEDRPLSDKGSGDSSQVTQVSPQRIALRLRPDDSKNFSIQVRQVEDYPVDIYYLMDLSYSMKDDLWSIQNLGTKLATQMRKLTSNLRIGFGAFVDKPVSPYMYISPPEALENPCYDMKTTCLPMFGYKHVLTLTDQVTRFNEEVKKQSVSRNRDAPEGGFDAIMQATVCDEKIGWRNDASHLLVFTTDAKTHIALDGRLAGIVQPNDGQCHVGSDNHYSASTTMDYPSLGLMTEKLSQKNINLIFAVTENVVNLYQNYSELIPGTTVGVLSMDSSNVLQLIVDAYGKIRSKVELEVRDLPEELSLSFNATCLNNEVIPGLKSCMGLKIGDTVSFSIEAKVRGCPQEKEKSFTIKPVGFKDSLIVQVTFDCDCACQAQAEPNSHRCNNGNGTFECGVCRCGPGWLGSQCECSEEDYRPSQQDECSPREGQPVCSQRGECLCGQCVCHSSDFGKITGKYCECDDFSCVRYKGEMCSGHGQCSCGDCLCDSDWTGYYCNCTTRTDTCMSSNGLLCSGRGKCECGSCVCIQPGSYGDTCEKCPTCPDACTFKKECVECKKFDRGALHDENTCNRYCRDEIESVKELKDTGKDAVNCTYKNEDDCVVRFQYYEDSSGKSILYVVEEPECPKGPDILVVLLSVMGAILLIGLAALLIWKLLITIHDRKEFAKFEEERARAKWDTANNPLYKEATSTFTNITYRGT

CC(=O)O[C@@]12CO[C@@H]1C[C@H](O)[C@@]1(C)C(=O)[C@H](O)C3=C(C)[C@@H](OC(=O)[C@H](O)[C@@H](NC(=O)OC(C)(C)C)c4ccccc4)C[C@@](O)([C@@H](OC(=O)c4ccccc4)[C@H]21)C3(C)C [Docetaxel]
Median Overall Survival [1]: 6.6 months

C#Cc1cccc(Nc2ncnc3cc(OCCOC)c(OCCOC)cc23)c1 [Erlotinib]
Median Overall Survival [1]: 5.8 months

CN(Cc1cnc2nc(N)nc(N)c2n1)c1ccc(C(=O)N[C@@H](CCC(=O)O)C(=O)O)cc1 [Methotrexate]
Median survival, patients with p53 profiles favorable for ADVEXIN efficacy ([2]; T301): 4.3 months
Median survival, patients with p53 profiles unfavorable for ADVEXIN efficacy ([2]; T301): 6.0 months
Tumor Growth Control, patients with TGC / patients ([2]; T301, p53 gene status mutated): 13/15
Tumor Growth Control, percentage of patients ([2]; T301, p53 gene status mutated): 87%
Tumor Growth Control, patients with TGC / patients [2, 6]: 11/20
Tumor Growth Control, percentage of patients [2, 6]: 55%
Median Survival, TGC Non-Responders ([2]; T301 ITT population): 3.8 months
Median Survival, TGC Responders ([2]; T301 ITT population): 7.5 months
% Tumor Growth Control ([2]; T301 ITT population, TGC = CR+PR+SD): 53.3%
% Tumor Response (≥10% tumor reduction) [2, 7]: 18.3%
% Tumor Response (≥50% tumor reduction) [2, 7]: 11.7%
Median Survival, Non-Responders (≥10% tumor reduction criterion) [2, 7]: 4.3 months
Median Survival, Non-Responders (≥50% tumor reduction criterion) [2, 7]: 4.6 months
Median Survival, Responders (≥10% tumor reduction) [2, 7]: 11.9 months
Median Survival, Responders (≥50% tumor reduction) [2, 7]: 14.4 months
Median Overall Survival [1]: 4.2-5.6 months
Grade 3 or 4 laboratory event: leukopenia ([3]; Phase III SCCHN study): 12.1%
Grade 3 or 4 laboratory event: lymphopenia ([3]; Phase III SCCHN study): 25.6%
Grade 3 or 4 laboratory event: neutropenia ([3]; Phase III SCCHN study): 12.1%
Incidence of Grade 3 or 4 laboratory events ([3]; Phase III SCCHN study): 39.5%
Body weight loss over time ([3]; Phase III SCCHN study, compared with ADVEXIN patients): more body weight loss
Deaths attributed to treatment ([3]; Phase III recurrent SCCHN study, due to leukopenia): one death
Incidences of stomatitis, nausea, pneumonia, paresthesia, leucopenia and neutropenia ([3]; Phase III study, relative to ADVEXIN): higher incidences

CC(=O)O[C@H]1C(=O)[C@@]2(C)[C@H]([C@H](OC(=O)c3ccccc3)[C@]3(O)C[C@H](OC(=O)[C@H](O)[C@@H](NC(=O)c4ccccc4)c4ccccc4)C(C)=C1C3(C)C)[C@]1(OC(C)=O)CO[C@@H]1C[C@@H]2O [Paclitaxel]
Median Overall Survival [1]: 4.4 months

Carboplatin/5FU
Median Overall Survival [1]: 5.0 months

Cisplatin/5FU
Median Overall Survival [1]: 5.6-6.4 months

B1: Vitaxin®: a monoclonal antibody directed against the αv/β3 vascular integrin (antibody, chains of the INN, looked up, V domains shown)
VH: QVQLVESGGGVVQPGRSLRLSCAASGFTFSSYDMSWVRQAPGKGLEWVAKVSSGGGSTYYLDTVQGRFTISRDNSKNTLYLQMNSLRAEDTAVYYCARHLHGSFASWGQGTTVTVSS
VL: EIVLTQSPATLSLSPGERATLSCQASQSISNFLHWYQQRPGQAPRLLIRYRSQSISGIPARFSGSGSGTDFTLTISSLEPEDFAVYYCQQSGSWPLTFGGGTKVEIK
Effect on tumors [4]: shrinks tumors
Effect on solid tumors [5]: some promise in shrinking solid tumors
